Experiments:
Assay in all cases: relative viability (nuclei count vs DMSO), 5 days (fraction); higher = more cells survive
HARA = test system: HARA
How it was run: (§1)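 Lung cancer cell lines, seeded in 1536-well plates, were treated the following day by pin tool with a single drug or with five library-drug doses (not always all listed) in √10 steps on top of a fixed anchor-drug dose. Cells were fixed and nuclei stained in one step after 5 days, and nuclei were counted. Relative viability is the nuclei count for treated wells divided by that for vehicle wells, reported as medians of duplicate plates.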

NCI-H358 = test system: NCI-H358
How it was run: as §1

NCI-H596 = test system: NCI-H596
How it was run: as §1

NCI-H1755 = test system: NCI-H1755
How it was run: as §1

PC-3 [JPC-3] = test system: PC-3 [JPC-3]
How it was run: as §1

NCI-H1793 = test system: NCI-H1793
How it was run: as §1

NCI-H322M = test system: NCI-H322M
How it was run: as §1

H3255 = test system: H3255
How it was run: as §1

NCI-H2085 = test system: NCI-H2085
How it was run: as §1

NCI-H1651 = test system: NCI-H1651
How it was run: as §1

NCI-H2087 = test system: NCI-H2087
How it was run: as §1

NCI-H1650 = test system: NCI-H1650
How it was run: as §1

HCC-78 = test system: HCC-78
How it was run: as §1

201T = test system: 201T
How it was run: as §1

NCI-H3122 = test system: NCI-H3122
How it was run: as §1

SK-LU-1 = test system: SK-LU-1
How it was run: as §1

COR-L23 = test system: COR-L23
How it was run: as §1

HCC-366 = test system: HCC-366
How it was run: as §1

NCI-H650 = test system: NCI-H650
How it was run: as §1

LU99A = test system: LU99A
How it was run: as §1

NCI-H23 = test system: NCI-H23
How it was run: as §1

NCI-H460 = test system: NCI-H460
How it was run: as §1

Nc1cccc2c1CN(C1CCC(=O)NC1=O)C2=O (configuration not stated) [Lenalidomide] + CS(=O)(=O)CCNCc1ccc(-c2ccc3ncnc(Nc4ccc(OCc5cccc(F)c5)c(Cl)c4)c3c2)o1 [Lapatinib] (partner 2 µM)
relative viability (HARA; first compound 0.253 µM): 0.775
relative viability (HARA; first compound 0.8 µM): 0.653
relative viability (HARA; first compound 2.53 µM): 0.8
relative viability (HARA; first compound 8 µM): 0.571
relative viability (NCI-H358; first compound 0.253 µM): 0.41
relative viability (NCI-H358; first compound 0.8 µM): 0.623
relative viability (NCI-H358; first compound 2.53 µM): 0.51
relative viability (NCI-H358; first compound 8 µM): 0.453
relative viability (NCI-H596; first compound 0.253 µM): 1.14
relative viability (NCI-H596; first compound 0.8 µM): 0.919
relative viability (NCI-H596; first compound 2.53 µM): 1.1
relative viability (NCI-H596; first compound 8 µM): 0.995
relative viability (NCI-H1755; first compound 0.253 µM): 1.02
relative viability (NCI-H1755; first compound 0.8 µM): 1
relative viability (NCI-H1755; first compound 2.53 µM): 1.04
relative viability (NCI-H1755; first compound 8 µM): 0.916
relative viability (PC-3 [JPC-3]; first compound 0.253 µM): 0.515
relative viability (PC-3 [JPC-3]; first compound 0.8 µM): 0.377
relative viability (PC-3 [JPC-3]; first compound 2.53 µM): 0.496
relative viability (PC-3 [JPC-3]; first compound 8 µM): 0.389
relative viability (NCI-H1793; first compound 0.253 µM): 0.675
relative viability (NCI-H1793; first compound 0.8 µM): 0.483
relative viability (NCI-H1793; first compound 2.53 µM): 1.07
relative viability (NCI-H1793; first compound 8 µM): 0.454
relative viability (NCI-H322M; first compound 0.253 µM): 0.648
relative viability (NCI-H322M; first compound 0.8 µM): 0.629
relative viability (NCI-H322M; first compound 2.53 µM): 0.592
relative viability (NCI-H322M; first compound 8 µM): 0.635
relative viability (H3255; first compound 0.253 µM): 0.237
relative viability (H3255; first compound 0.8 µM): 0.191
relative viability (H3255; first compound 2.53 µM): 0.317
relative viability (H3255; first compound 8 µM): 0.227
relative viability (NCI-H2085; first compound 0.253 µM): 0.731
relative viability (NCI-H2085; first compound 0.8 µM): 0.538
relative viability (NCI-H2085; first compound 2.53 µM): 0.912
relative viability (NCI-H2085; first compound 8 µM): 0.477
relative viability (NCI-H1651; first compound 0.253 µM): 0.825
relative viability (NCI-H1651; first compound 0.8 µM): 0.867
relative viability (NCI-H1651; first compound 2.53 µM): 1.25
relative viability (NCI-H1651; first compound 8 µM): 0.88
relative viability (NCI-H2087; first compound 0.253 µM): 1.01
relative viability (NCI-H2087; first compound 0.8 µM): 0.78
relative viability (NCI-H2087; first compound 2.53 µM): 1.07
relative viability (NCI-H2087; first compound 8 µM): 1.09
relative viability (NCI-H1650; first compound 0.253 µM): 0.75
relative viability (NCI-H1650; first compound 0.8 µM): 0.485
relative viability (NCI-H1650; first compound 2.53 µM): 0.835
relative viability (NCI-H1650; first compound 8 µM): 0.731
relative viability (HCC-78; first compound 0.253 µM): 0.811
relative viability (HCC-78; first compound 0.8 µM): 0.367
relative viability (HCC-78; first compound 2.53 µM): 0.245
relative viability (HCC-78; first compound 8 µM): 0.271
relative viability (201T; first compound 0.253 µM): 1.07
relative viability (201T; first compound 0.8 µM): 0.815
relative viability (201T; first compound 2.53 µM): 1.02
relative viability (201T; first compound 8 µM): 0.954
relative viability (NCI-H3122; first compound 0.253 µM): 1.04
relative viability (NCI-H3122; first compound 0.8 µM): 1.03
relative viability (NCI-H3122; first compound 2.53 µM): 0.974
relative viability (NCI-H3122; first compound 8 µM): 1.13
relative viability (SK-LU-1; first compound 0.253 µM): 0.804
relative viability (SK-LU-1; first compound 0.8 µM): 0.891
relative viability (SK-LU-1; first compound 2.53 µM): 1.11
relative viability (SK-LU-1; first compound 8 µM): 0.889
relative viability (COR-L23; first compound 0.253 µM): 1.05
relative viability (COR-L23; first compound 0.8 µM): 0.935
relative viability (COR-L23; first compound 2.53 µM): 1.29
relative viability (COR-L23; first compound 8 µM): 1.2
relative viability (HCC-366; first compound 0.253 µM): 1.03
relative viability (HCC-366; first compound 0.8 µM): 1.1
relative viability (HCC-366; first compound 2.53 µM): 1.03
relative viability (HCC-366; first compound 8 µM): 1.07
relative viability (NCI-H650; first compound 0.253 µM): 1.04
relative viability (NCI-H650; first compound 2.53 µM): 1.01
relative viability (NCI-H650; first compound 8 µM): 0.804
relative viability (LU99A; first compound 0.253 µM): 0.922
relative viability (LU99A; first compound 0.8 µM): 0.919
relative viability (LU99A; first compound 2.53 µM): 0.894
relative viability (LU99A; first compound 8 µM): 0.56
relative viability (NCI-H23; first compound 0.253 µM): 1.05
relative viability (NCI-H23; first compound 0.8 µM): 1
relative viability (NCI-H23; first compound 2.53 µM): 1.16
relative viability (NCI-H23; first compound 8 µM): 0.781
relative viability (NCI-H460; first compound 0.253 µM): 0.981
relative viability (NCI-H460; first compound 0.8 µM): 1.14
relative viability (NCI-H460; first compound 2.53 µM): 1.66
relative viability (NCI-H460; first compound 8 µM): 1.01

Source: the supplement of paper PMC10307832
